One compound from PMC3752336 (Neurochemical research, 2008) can be followed below.

For the experiment, the target named is human M3 muscarinic acetylcholine receptor (hM3) (Homo sapiens, UniProt P20309). The experiment is described as follows: inhibition of [3H]NMS binding, intact CHO cells. The format is cell-based.
Chain of human M3 muscarinic acetylcholine receptor (hM3) (P20309 whole entry): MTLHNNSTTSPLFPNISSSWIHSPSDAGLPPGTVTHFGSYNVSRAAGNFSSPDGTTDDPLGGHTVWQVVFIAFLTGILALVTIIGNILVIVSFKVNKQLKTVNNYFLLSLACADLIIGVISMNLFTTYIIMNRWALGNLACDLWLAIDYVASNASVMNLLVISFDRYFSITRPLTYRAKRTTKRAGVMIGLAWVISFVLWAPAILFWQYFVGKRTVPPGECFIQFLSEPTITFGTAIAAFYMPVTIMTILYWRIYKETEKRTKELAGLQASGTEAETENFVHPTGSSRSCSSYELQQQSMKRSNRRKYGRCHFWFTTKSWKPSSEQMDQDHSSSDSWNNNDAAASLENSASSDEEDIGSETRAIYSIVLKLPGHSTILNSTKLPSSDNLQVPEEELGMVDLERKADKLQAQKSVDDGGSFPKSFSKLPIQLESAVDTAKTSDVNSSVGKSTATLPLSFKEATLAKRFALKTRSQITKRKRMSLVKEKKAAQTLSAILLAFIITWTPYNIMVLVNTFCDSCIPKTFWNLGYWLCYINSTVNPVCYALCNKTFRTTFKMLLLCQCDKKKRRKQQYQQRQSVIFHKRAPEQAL

The term IC50 denotes the concentration that inhibits the measured activity by half. High values mean weaker potency, low ones greater potency. Compound `CCCCCCOc1nsnc1C1=CCCN(C)C1` [Xanomeline] gave an IC50 of 79.4 nM.
